The source of these data is patent publication US20140243374A1, “Novel Sulfonamides” (The Brigham and Women's Hospital, Inc., priority 2011, published 2014).

The term IC50 denotes the concentration that inhibits the measured activity by half. Low readings indicate inhibition by little substance, high ones a need for much substance.

The structures appear in SMILES notation. Where “and” joins values, the source holds several entries; their conditions need not be identical. Equal entries are not always repeated.

The target in test [1] is T1, γ-secretase (Notch cleavage activity) (Homo sapiens, UniProt P49768).
T1 construct: endogenous in cells; host or cells: SUP-T1 cells
The experiment in a line: Cleaved Notch1 Sandwich ELISA (SUP-T1 cell line). Format: cell-based. Conditions: for IC50: SUP-T1 cells, 16 h; for Notch Elisa/Aβ42: ratio Notch Elisa IC50 to Aβ42 IC50. The procedure: Cleaved Notch1 Sandwich ELISA.
This assay was used to determine if the compounds of interest inhibit the Notch cleavage activity of γ-secretase in SUP-T1 cell line, which endogenously expresses a truncated Notch receptor fragment that is a viable gamma-secretase substrate. The base medium for this cell line is ATCC-formulated RPMI-1640 Medium with fetal bovine serum to a final concentration of 10%. Prepare dilution of SUP-T1 cells in complete growth medium to 1.0×10^6 cells/mL, seed 1.5 mL per well of each cell dilution into a 6-well plate. Collect cells treated with serial diluted compounds in DMSO after 16 h, then using equal amount of protein isolated from samples to measure Notch intracellular cleavage by PathScan® Sandwich ELISA Kit (Cell Signaling Tech 7194S).

Test [2] deals with T2, γ-secretase (cleavage of APP, Aβ42) (Homo sapiens, UniProt P49768).
T2 construct: endogenous in cells; host or cells: HEK AP-GL-T16 luciferase reporter cells (tetracycline-induced APP substrate)
In words: Aβ (1-42) cellular assay (Aβ ELISA, HEK AP-GL-T1 6 cells). Format: cell-based. The following applies: cellular Aβ42 ELISA, 24 h compound treatment. How it is done:
Aβ (1-42) Cellular Assay.
The following assay was used to determine the extent to which the compounds of interest inhibit the cleavage of APP in vivo. AβELISA is a commercial fluorometric kit from Biosource (Invitrogen 89344). Luciferase reporter HEK AP-GL-T1 6 cells were plated at 50,000 cells/well in 96 well plates in DMEM media containing 10% tetracyclin free […], 250 μg/mL zeocin, 200 μg/mL hygromycin, and 5 μg/mL blasticidin. Compounds were added 24 h after plating and APP processing is induced simultaneously by addition of tetracycline. Following a 24 h compound treatment, […] of conditioned cell media is collected, mixed with ELISA diluent buffer containing 2 mM AEBSF and 12 mM o-phenanthroline, and immediately frozen at −80° C. For the ELISA, the samples were brought to room temperature and spun at 5000 rpm for 5 min. Samples ([…]) are incubated in the ELISA plate with […] detection antibody on a shaker at room temperature for 3 h. Wells were then washed 4 times with wash buffer and 100 mL of secondary antibody are added and incubated at room temperature for 30 min. Wells were again washed 4 times with wash buffer and 100 mL of fluorescent substrate solution are added. After 30 minutes of incubation, fluorescent signals are determine on a Gemini reader at ex 460 nm and em 560 nm. The amount of Aβ levels in each sample was determined from a standard curve generated by known concentrations of Aβ peptide run simultaneously with the samples.

On to `C[C@H](CO)NC(=O)c1ccc(CN(C2CCCC(C(F)(F)F)C2)S(=O)(=O)c2ccc(Cl)nc2)cc1` (stereo partly drawn) [Example 64, 4-((6-Chloro-N-(3-(trifluoromethyl)cyclohexyl)pyridine-3-sulfonamido)methyl)-N—((R)-1-hydroxypropan-2-yl)benzamide], for which, in test [1], inhibition was half-maximal at 1070 nM (IC50) and the “Notch Elisa/Aβ42” value is listed as 89. The molecule also returned an IC50 in test [2] of 12 nM.
For `C[C@H](CO)NC(=O)c1ccc(CN(C2CCCCC2F)S(=O)(=O)c2ccc(Cl)nc2)cc1` (stereo partly drawn) [Example 65, 4-((6-Chloro-N-(2-fluorocyclohexyl)pyridine-3-sulfonamido)methyl)-N—((R)-1-hydroxypropan-2-yl)benzamide] the same measures were 1150 nM, 84 and 13.7 nM.
The matching figures for `O=C(NCCO)c1ccc(CN(C2CCCCC2F)S(=O)(=O)c2ccc(Cl)cc2)cc1` (stereo not drawn) [Example 66, 4-((4-Chloro-N-(2-fluorocyclohexyl)phenylsulfonamido)methyl)-N-(2-hydroxyethyl)benzamide]: 1380 nM, 134 and 10.3 nM.
For the molecule `O=C(O)c1ccc(CN(C2CCCCC2C(F)(F)F)S(=O)(=O)c2ccc(Cl)cc2)cc1` (stereo not drawn) [Example 68, 4-((4-Chloro-N-(2-(trifluoromethyl)cyclohexyl)phenylsulfonamido)methyl)benzoic acid], in test [1], the midpoint of inhibition, the IC50, lay at 830 nM and the “Notch Elisa/Aβ42” value was determined as 33. Further, the half-inhibitory concentration (IC50) in test [2] worked out at 25.5 nM.
The matching figures for `C[C@@H](CO)NC(=O)c1ccc(CN(C2CCCCC2C(F)(F)F)S(=O)(=O)c2ccc(Cl)cc2)cc1` (stereo partly drawn) [Example 69, 4-((4-Chloro-N-(2-(trifluoromethyl)cyclohexyl)phenylsulfonamido)methyl)-N—((S)-1-hydroxypropan-2-yl)benzamide]: 94 nM, 44 and 2.16 nM.
For `C[C@H](O)CNC(=O)c1ccc(CN(C2CCCCC2F)S(=O)(=O)c2ccc(Cl)cc2)cc1` (stereo partly drawn) [Example 73, 4-((4-Chloro-N-(2-fluorocyclohexyl)phenylsulfonamido)methyl)-N—((S)-2-hydroxypropyl)benzamide], the IC50 is 1100 nM in test [1] and 10.4 nM in test [2]. Besides, in test [1], the “Notch Elisa/Aβ42” value is 106.
The matching figures for `CN(C)CCNC(=O)c1ccc(CN(C2CCCCC2F)S(=O)(=O)c2ccc(Cl)cc2)cc1` (stereo not drawn) [Example 74, 4-((4-Chloro-N-(2-fluorocyclohexyl)phenylsulfonamido)methyl)-N-(2-(dimethylamino)ethyl)benzamide]: 10000 nM, 130 nM and 78.
Regarding `CN(C)CCNC(=O)c1ccc(CN(C2CCCCC2F)S(=O)(=O)c2ccc(Cl)cc2)cc1.Cl` (stereo not drawn) [Example 75, 4-((4-Chloro-N-(2-fluorocyclohexyl)phenylsulfonamido)methyl)-N-(2-(dimethylamino)ethyl)benzamide hydrochloride], in test [1], the IC50 amounted to 4140 nM and the “Notch Elisa/Aβ42” value was 80. Further, the concentration for half-maximal inhibition (IC50) in test [2] is 32.8 nM and 70.7 nM.
Consider `O=C(O)c1ccc(CN(C2CCCCC2(F)F)S(=O)(=O)c2ccc(Cl)cc2)cc1` (stereo not drawn) [Example 76, 4-((4-Chloro-N-(2,2-difluorocyclohexyl)phenylsulfonamido)methyl)benzoic acid], for which, in test [1], half-maximal inhibition (IC50) required 5060 nM and the “Notch Elisa/Aβ42” value is 56. For the same molecule, the 50% inhibitory concentration (IC50) in test [2] turned out to be 89.9 nM.
For `CC1CCCCC1N(Cc1ccc(C#N)cc1)S(=O)(=O)c1ccc(Cl)cc1` (stereo not drawn) [Example 78, 4-Chloro-N-(4-cyanobenzyl)-N-(2-methylcyclohexyl)benzenesulfonamide] the same measures were 879 nM, 63 and 14 nM.
For `COC(=O)c1ccc(CN([C@@H]2CCCC[C@H]2F)S(=O)(=O)c2ccc(Cl)cc2)cc1` [Example 83, Methyl 4-((4-chloro-N-((1R,2R)-2-fluorocyclohexyl)phenylsulfonamido)methyl)benzoate] the same measures were 1570 nM, 35 and 44.3 nM.
